Laboratory results reported in US10054581B1, “Inhibitors of notch signaling pathway and use thereof in treatment of cancers” (Ecole Polytechnique Federale de Lausanne (EPFL), priority 2011, dated 2018).
“Also recorded” adds a separate entry of the source.

Experiments:
[1] = tested on: Notch1-intracellular domain (NICD) mediated Notch signalling; test: NICD transfected HeLa cells, 12×CSL luciferase reporter; assay type: cell-based; conditions: HeLa cells transfected with NICD; I3 2-40 μM, DAPT 5-40 μM
Description: To measure the Notch signalling activation, CSL/RBP-jk consensus DNA binding sequences were cloned in a head to tail conformation in the pGL4 luciferase vector (Promega), thus named 12×CSL/RBP-jjk luciferase vector. In order to determine the Notch pathway activation in chemical compound screening assay, 12×CSL/RBP-jk consensus DNA binding sequences were cloned into pGL4.26.luciferase vector (Promega). As an internal control for transfection efficiency, SV40 Renilla vector was used (Promega).
NICD-GFP overexpression studies were performed using pEGFP-C1-NICD expression plasmid. The FLAG-CMV2 plasmid expressing MAML1-FLAG was a kind gift from Dr. Lizi Wu, Harvard Medical School, Boston.
The transfected cells were treated with an increasing concentration of I3 and DAPT.

[2] = tested on: HCC1187 human breast cancer cell line; test: Alamar blue proliferation assay, HCC1187; assay type: cell-based; conditions: 6 days
Experimental: (§1) FIGS. 5A-5E show 6-(4-Tert-Butylphenoxy)Pyridin-3-Amine (I3) blocks NICD dependent growth of human cancer cells. […] Western blot analyses were carried out for Hes1 protein using Hes1 specific antibodies. […] Growth kinetics of the parental cell line was followed over 5 days using Alamar blue readout. […] This mutation renders this cell line insensitive to γ-secretase inhibitor treatment. […] The cells were treated with DMSO, γ-secretase inhibitor DAPT and I3 for 6 days. Alamar blue readout was taken at day 0, day 2, day 4 and day 6. Eight replicates were used for each treatment and time point. […] P values were calculated using Student's t.test. *=p value<0.05. ns=not significant.
(§2) Alamarblue® proliferation assays were performed to determine the growth kinetics of Notch inhibitor treated cells. Alamar Blue® consists of a cell permeable substrate resazurin. In metabolically active and proliferating cells, resazurin is converted to resorufin due to an intrinsic reducing power of live cells and produces a red fluorescence. Therefore production of resorufin serves as an indicator of the viability of the cell population.
(§3) Proliferation assays were performed by seeding 5000 cells/well in a 96 well plate. Cells were treated with DMSO or Notch inhibitors for different time intervals. […] Alamarblue readout was taken using Tecan F500 (Tecan) multiplate reader. […]

C2C12 myoblasts = test: C2C12 myoblast differentiation assay; assay type: cell-based; conditions: growth medium (10% serum), 3 days
Experimental: C2C12 cells were grown on collagen-coated cover slip in the presence of growth media (10% serum). To induce myoblast differentiation, cells were grown to 100% confluency for 3 days in the presence of differentiation media (2% horse serum) or in the presence of growth media+Notch inhibitors. After 3 days, cells were washed with 1× ice-cold PBS and fixed with 4% PFA. Immunofluorescence staining was performed using anti-MHC antibody as explained in the section 2.2.6 (Immunofluorescence staining).
To further confirm the Notch inhibitory potential of 6-(4-Tert-Butylphenoxy)Pyridin-3-Amine (I3) in different systems, C2C12 myoblast differentiation was used as a functional assay. The Notch pathway activation in C2C12 myoblasts retains them in an undifferentiated state, while abrogation of Notch signalling induces their differentiation. C2C12 myoblasts were treated with DMSO, 6-(4-Tert-Butylphenoxy)Pyridin-3-Amine (I3) and DAPT and grown to 100% confluency for 3 days. After three days, cells were fixed and stained with antibodies against Myosin Heavy Chain (MHC) protein. Cell nuclei were counterstained with DAPI.

DND41-Parental cell line = test: Alamar blue proliferation assay, DND41-Parental; assay type: cell-based, human; conditions: over 5 days
Experimental: as §1
(§4) Alamarblue® proliferation assays were performed to determine the growth kinetics of Notch inhibitor treated cells. […] In metabolically active and proliferating cells, resazurin is converted to resorufin due to an intrinsic reducing power of live cells and produces a red fluorescence. […]
(§5) Proliferation assays were performed by seeding 5000 cells/well in a 96 well plate. […] Alamarblue readout was taken using Tecan F500 (Tecan) multiplate reader.
(§6) 6-(4-Tert-Butylphenoxy)Pyridin-3-Amine (I3) can block NICD mediated activation of the Notch pathway (FIGS. 1A-D). […] In addition, these two cell lines were also monitored over several days for anti-proliferative effects of 6-(4-Tert-Butylphenoxy)Pyridin-3-Amine (I3) and DAPT.

PANC1 = test: Alamar blue proliferation assay, PANC1; assay type: cell-based, human; conditions: 10 μM, 4 days
Experimental: (§7) Human T-ALL cell lines RPMI 8402 and KOPTK1, and pancreatic cancer cell line PANC1 as well as nRas driven melanoma cells were seeded in a 96 well plate and treated with 10 μM concentration of 6-(4-Tert-Butylphenoxy)Pyridin-3-Amine (I3) and DAPT for several days. Their growth inhibitory effects were compared with cells treated with equal amount of DMSO. Using Alamar blue assay, the growth kinetics of RPMI 8402 and KOPTK1 were followed for upto 6 days, while PANC1 and nRas melanoma cells were monitored for 4 days. 6-(4-Tert-Butylphenoxy)Pyridin-3-Amine (I3) treatment of RPMI 8402, KOPTK1. […] Statistical analyses were done using student's t.test. *=p value<0.05. ns=not significant.
as §2, §3

DND41-NICD cells = test: Alamar blue proliferation assay, DND41-NICD; assay type: cell-based, human; conditions: over 5 days
Experimental: as §1, §4, §5, §6

RPMI 8402 = test: Alamar blue proliferation assay, RPMI 8402; assay type: cell-based, human; conditions: 10 μM, up to 6 days
Experimental: as §7, §2, §3

Row | SMILES | NICD mediated Notch signalling activation [1] | proliferation (Alamar blue) [2] | differentiation into MHC positive myotubes (C2C12 myoblasts) | proliferation (Alamar blue) (DND41-Parental cell line) | proliferation (Alamar blue) (PANC1) | proliferation (Alamar blue) (DND41-NICD cells) | proliferation (Alamar blue) (RPMI 8402)
1 | C[C@H](NC(=O)Cc1cc(F)cc(F)c1)C(=O)N[C@H](C(=O)OC(C)(C)C)c1ccccc1 [DAPT, N—[N-(3,5-difluorophenacetyl-Lalanyl)]-(S)-phenylglycine t-butyl ester, reference compound] | had no effect on the signalling activation; also recorded: had no effect on Notch signalling activation mediated by NICD | did not inhibit proliferation; also recorded: did not alter the growth kinetics | started to differentiate into multinucleated MHC positive myotubes | caused a significant proliferative block; also recorded: caused a proliferation arrest | induced a significant proliferation block | did not have a significant impact on their proliferation | induced a significant proliferation block
2 | CC(C)(C)c1ccc(Oc2ccc(N)cn2)cc1 [I3, 6-(4-Tert-Butylphenoxy)Pyridin-3-Amine] | could block pathway activation in a dose-dependent manner; also recorded: could also block pathway activation by Notch1-intracellular domain (NICD) and Notch2-intracellular domain (N2-ICD); also recorded: led to an attenuation of the signalling; also recorded: inhibits pathway activation via intracellular domains of Notch1 (NICD) and Notch2 (N2-ICD); also recorded: found to block NICD mediated pathway activation | significantly induced a proliferation block; also recorded: caused statistically significant inhibition of cell proliferation | started to differentiate into multinucleated MHC positive myotubes; also recorded: can induce differentiation of C2C12 cells into MHC expressing multinucleated myotubes | caused a significant proliferative block; also recorded: caused a proliferation arrest | induced a significant proliferation block; also recorded: caused a significant reduction in their growth potential | induced a proliferation arrest; also recorded: able to block proliferation of NICD overexpressing leukemic cell lines which are resistant to DAPT | induced a significant proliferation block; also recorded: caused a significant reduction in their growth potential
